Results: patent US20120027741A1 (priority 2009, published 2012)
Where a name gives a salt, the structure may show the parent alone. Read-outs that look alike come from different tables or passages of the source.

Experiments:
Format in all cases: in vivo
Sphaerotheca fuliginea = experiment: Sphaerotheca test (cucumbers)/protective; conditions: 7 days after inoculation
Procedure: Sphaerotheca Test (Cucumbers)/Protective
(§1) Solvent: • 24,5 parts by weight of acetone • 24,5 parts by weight of dimethylacetamide
(§2) Emulsifier: • 1 part by weight of alkylaryl polyglycol ether
(§3) To produce a suitable preparation of active compound, 1 part by weight of active compound is mixed with the stated amounts of solvent and emulsifier, and the concentrate is diluted with water to the desired concentration.
To test for protect activity, young plants are sprayed with the preparation of active compound at the stated rate of application. After the spray coating has dried on, the plants are inoculated with to an aqueous spore suspension of Sphaerotheca fuliginea. The plants are then placed in a greenhouse at approximately 23° C. and a relative atmospheric humidity of approximately 70%.
The test is evaluated 7 days after the inoculation. 0% means an efficacy which corresponds to that of the control, while an efficacy of 100% means that no disease is observed.

Phytophthora infestans = experiment: whole plant or invertebrate; conditions: tomatoes, 3 days after inoculation; for pest or weed control at 12.5 ppm: read-out: Efficacy in % found, Table 2
Botrytis cinerea = experiment: Botrytis test (beans)/protective; conditions: 48 h, 2 days after inoculation, read-out: Efficacy in % found; for pest or weed control at 5 ppm: Table 9, 5 ppm a.i.; for pest or weed control at 10 ppm: Table 9, 10 ppm a.i.
Procedure: Botrytis Test (Beans)/Protective
as §1, §2, §3
To test for protective activity, young plants are sprayed with the preparation of active compound. After the spray coating has dried on, 2 small pieces of agar covered with growth of Botrytis cinerea are placed on each leaf. The inoculated plants are placed in a darkened chamber at 20° C. and a relative atmospheric humidity of 100%.
2 days after the inoculation, the size of the lesions on the leaves is evaluated. 0% means an efficacy which corresponds to that of the control, while an efficacy of 100% means that no disease is observed.

Pythium ultimum = experiment: Pythium test (cotton)/seed treatment; conditions: emerged seedlings after 7 days
Procedure: Pythium Test (Cotton)/Seed Treatment
The test is performed under greenhouse conditions.
Cotton seeds, treated with the active compound or compound combinations, solved in N-methyl-2-pyrrolidon and diluted with water to the desired dosages, were sown in 6*6 cm pots containing 4 cm of a 1:1 mix of steamed field soil and sand.
Perlite was incubated with mycelium fragments of Pythium ultimum. 1 ml of infected perlite was scattered between the treated cotton seeds. Seeds were then covered by light expanded clay aggregate. Pots were incubated in the greenhouse 7 days at 20° C. and 80% relative humidity.
Assessment consisted of counting of emerged seedlings. 0% means an efficacy which to corresponds to that of the control, while an efficacy of 100% means that all seedlings have emerged.

[1] = Podosphaera fuliginea, 168 h, Table 7, 1 ppm a.i., read-out: Efficacy in % found
[2] = Phytophthora infestans, 72 h, read-out: Efficacy in % found, Table 1, 0.4 ppm a.i.
[3] = Phytophthora infestans, 72 h, read-out: Efficacy in % found, Table 1, 40 ppm a.i.
[4] = Phytophthora infestans, 72 h, 12.5 ppm a.i.

Compound: Fc1ccc([C@]2(Cn3cncn3)O[C@H]2c2ccccc2Cl)cc1 (racemic) [epoxiconazole]
- pest or weed control at 1 ppm (Sphaerotheca fuliginea; [1]): 63%

Compound: C[C@@]1(c2ccc(Oc3ccccc3)cc2)OC(=O)N(Nc2ccccc2)C1=O (racemic) [famoxadone]
- pest or weed control at 0.4 ppm (Phytophthora infestans; [2]): 23%

Compound: Cn1cc(C(=O)Nc2ccccc2-c2cc(F)c(F)c(F)c2)c(C(F)F)n1 [3-(difluoromethyl)-1-methyl-N-(3′,4′,5′-trifluorobiphenyl-2-yl)-1H-pyrazole-4-carboxamide]
- pest or weed control at 100 ppm (Phytophthora infestans; Phytophthora infestans, 72 h, read-out: Efficacy in % found, Table 3, 100 ppm a.i.): 35%
- pest or weed control at 5 ppm (Botrytis cinerea): 65%

Compound: Cc1cc(C(F)(F)F)nn1CC(=O)N1CCC(c2nc(C(=O)N(C)[C@@H]3CCCc4ccccc43)cs2)CC1 [N-methyl-2-(1-{[5-methyl-3-(trifluoromethyl)-1H-pyrazol-1-yl]acetyl}piperidin-4-yl)-N-[(1R)-1,2,3,4-tetrahydronaphthalen-1-yl]-1,3-thiazole-4-carboxamide]
- pest or weed control at 0.1 ppm (Phytophthora infestans; Phytophthora infestans, 72 h, read-out: Efficacy in % found, Table 1, 0.1 ppm a.i.): 48%

Compound: CCCCCCCCc1c(CC)nc2ncnn2c1N [ametoctradin]
- Efficacy in % found (Phytophthora infestans; Table 1, 1 ppm a.i.): 22%

Compound: CO/C=C(/C(=O)OC)c1ccccc1Oc1cc(Oc2ccccc2C#N)ncn1 [azoxystrobin]
- Efficacy in % found (Phytophthora infestans; Table 1, 0.4 ppm a.i.): 30%
- Efficacy in % found (Sphaerotheca fuliginea; Table 8, 1 ppm a.i.): 30%

Compound: COC(=O)[C@@H](C)N(C(=O)Cc1ccccc1)c1c(C)cccc1C [benalaxyl-M]
- Efficacy in % found (Phytophthora infestans; Table 5, 1 ppm a.i.): 28%
- Efficacy in % found (Pythium ultimum; Table 11, 1 g a.i./dt): 4%

Compound: CC(C)[C@H](NC(=O)O)C(=O)N[C@H](C)c1nc2ccc(F)cc2s1 [benthiavalicarb]
- Efficacy in % found (Phytophthora infestans; Table 1, 0.1 ppm a.i.): 48%

Compound: Cn1cc(C(=O)Nc2ccc(F)cc2-c2ccc(Cl)c(Cl)c2)c(C(F)F)n1 [bixafen, N-(3′,4′-dichloro-5-fluorobiphenyl-2-yl)-3-(difluoromethyl)-1-methyl-1H-pyrazole-4-carboxamide]
- pest or weed control at 40 ppm (Phytophthora infestans; [3]): 18%
- pest or weed control at 1 ppm (Sphaerotheca fuliginea; Podosphaera fuliginea, 168 h, Table 8, 1 ppm a.i., read-out: Efficacy in % found): 0%

Compound: O=C(Nc1ccccc1-c1ccc(Cl)cc1)c1cccnc1Cl [boscalid]
- pest or weed control at 40 ppm (Phytophthora infestans; [3]): 26%
- pest or weed control at 10 ppm (Botrytis cinerea): 73%

Compound: N#Cc1c(Cl)c(Cl)c(Cl)c(C#N)c1Cl [chlorothalonil]
- pest or weed control at 12.5 ppm (Phytophthora infestans; [4]): 20%

Compound: [Cu+2].[OH-].[OH-] [copper hydroxide]
- Efficacy in % found (Phytophthora infestans; Table 2, 6.25 ppm a.i.): 73%

Compound: [Cl-].[Cu+2].[Cu+2].[OH-].[OH-].[OH-] [copper oxychloride]
- Efficacy in % found (Phytophthora infestans; Table 2, 6.25 ppm a.i.): 60%

Compound: Cc1ccc(-c2c(Cl)nc(C#N)n2S(=O)(=O)N(C)C)cc1 [cyazofamid]
- pest or weed control at 0.4 ppm (Phytophthora infestans; [2]): 49%

Compound: CCNC(=O)NC(=O)/C(C#N)=N/OC [cymoxanil]
- pest or weed control at 1.25 ppm (Phytophthora infestans; Phytophthora infestans, 72 h, read-out: Efficacy in % found, Table 6, 1.25 ppm a.i.): 29%

Compound: COc1ccc(C(=CC(=O)N2CCOCC2)c2ccc(Cl)cc2)cc1OC [dimethomorph]
- pest or weed control at 0.4 ppm (Phytophthora infestans; [2]): 41%

Compound: CSC1=N[C@@](C)(c2ccccc2)C(=O)N1Nc1ccccc1 [fenamidone]
- pest or weed control at 0.4 ppm (Phytophthora infestans; [2]): 57%
- Efficacy in % found (Pythium ultimum; Table 11, 1 g a.i./dt): 4%

Compound: CC1(C(=O)Nc2ccc(O)c(Cl)c2Cl)CCCCC1 [fenhexamid]
- pest or weed control at 5 ppm (Botrytis cinerea): 81%

Compound: O=[N+]([O-])c1cc(C(F)(F)F)c(Cl)c([N+](=O)[O-])c1Nc1ncc(C(F)(F)F)cc1Cl [fluazinam]
- pest or weed control at 2 ppm (Phytophthora infestans; Phytophthora infestans, 72 h, read-out: Efficacy in % found, Table 1, 2 ppm a.i.): 38%

Compound: O=C(NCc1ncc(C(F)(F)F)cc1Cl)c1c(Cl)cccc1Cl [fluopicolide]
- Efficacy in % found (Phytophthora infestans; Table 1, 0.4 ppm a.i.): 18%
- Efficacy in % found (Pythium ultimum; Table 11, 10 g a.i./dt): 26%

Compound: O=C(NCCc1ncc(C(F)(F)F)cc1Cl)c1ccccc1C(F)(F)F [fluopyram, N-{2-[3-chloro-5-(trifluoromethyl)pyridin-2-yl]ethyl}-2-(trifluoromethyl)benzamide]
- pest or weed control at 25 ppm (Phytophthora infestans; Phytophthora infestans, 72 h, read-out: Efficacy in % found, Table 3, 25 ppm a.i.): 9%
- pest or weed control at 10 ppm (Botrytis cinerea): 70%

Compound: CO/N=C(/C1=NOCCO1)c1ccccc1Oc1ncnc(Oc2ccccc2Cl)c1F [fluoxastrobin]
- pest or weed control at 0.4 ppm (Phytophthora infestans; [2]): 36%

Compound: O=c1c2cc(F)ccc2nc(-n2cncn2)n1-c1ccc(Cl)cc1Cl [fluquinconazole]
- pest or weed control at 0.5 ppm (Sphaerotheca fuliginea; Podosphaera fuliginea, 168 h, Table 7, 0.5 ppm a.i., read-out: Efficacy in % found): 63%

Compound: O=C1c2ccccc2C(=O)N1SC(Cl)(Cl)Cl [folpet]
- pest or weed control at 50 ppm (Botrytis cinerea; Table 10, 50 ppm a.i.): 79%

Compound: CCO[PH](=O)O [fosetyl-Al]
- Efficacy in % found (Phytophthora infestans; Table 2, 12.5 ppm a.i.): 0%

Compound: CC(C)NC(=O)N1CC(=O)N(c2cc(Cl)cc(Cl)c2)C1=O [iprodione]
- pest or weed control at 50 ppm (Botrytis cinerea; Table 9, 50 ppm a.i.): 70%

Compound: Cc1ccc(C(C)NC(=O)[C@@H](NC(=O)OC(C)C)C(C)C)cc1 (some centres unmarked) [iprovalicarb]
- Efficacy in % found (Phytophthora infestans; Table 1, 0.4 ppm a.i.): 0%

Compound: CC(C)C1C2CCC1c1c(NC(=O)c3cn(C)nc3C(F)F)cccc12 (centres unmarked) [isopyrazam]
- Efficacy in % found (Phytophthora infestans; Table 1, 40 ppm a.i.): 20%

Compound: C#CCOc1ccc(CCNC(=O)C(OCC#C)c2ccc(Cl)cc2)cc1OC (centres unmarked) [mandipropamid]
- Efficacy in % found (Phytophthora infestans; Table 1, 0.4 ppm a.i.): 84%
- Efficacy in % found (Pythium ultimum; Table 11, 10 g a.i./dt): 0%

Compound: COCC(=O)N(c1c(C)cccc1C)[C@H](C)C(=O)OC [mefenoxam]
- Efficacy in % found (Pythium ultimum; Table 11, 0.1 g a.i./dt): 48%

Compound: Cc1nn(C)c(F)c1C(=O)Nc1ccccc1C(C)CC(C)C (centres unmarked) [penflufen]
- Efficacy in % found (Phytophthora infestans; Table 1, 40 ppm a.i.): 16%

Compound: CC(C)CC(C)c1sccc1NC(=O)c1cn(C)nc1C(F)(F)F (centres unmarked) [penthiopyrad]
- pest or weed control at 40 ppm (Phytophthora infestans; [3]): 31%

Compound: OP(O)O [phosphorous acid]
- Efficacy in % found (Phytophthora infestans; Table 2, 12.5 ppm a.i.): 0%

Compound: CCCN(CCOc1c(Cl)cc(Cl)cc1Cl)C(=O)n1ccnc1 [prochloraz]
- pest or weed control at 100 ppm (Phytophthora infestans; Phytophthora infestans, 72 h, read-out: Efficacy in % found, Table 4, 100 ppm a.i.): 26%

Compound: CCCOC(=O)NCCCN(C)C [propamocarb-HCl]
- pest or weed control at 12.5 ppm (Phytophthora infestans; [4]): 20%

Compound: CCCC1COC(Cn2cncn2)(c2ccc(Cl)cc2Cl)O1 (centres unmarked) [propiconazole]
- pest or weed control at 1 ppm (Sphaerotheca fuliginea; [1]): 13%

Compound: OC(Cc1ccccc1Cl)(Cn1nc[nH]c1=S)C1(Cl)CC1 (centres unmarked) [prothioconazole]
- pest or weed control at 1 ppm (Sphaerotheca fuliginea; [1]): 50%

Compound: COC(=O)N(OC)c1ccccc1COc1ccn(-c2ccc(Cl)cc2)n1 [pyraclostrobin]
- pest or weed control at 0.4 ppm (Phytophthora infestans; [2]): 28%

Compound: Cc1cc(C)nc(Nc2ccccc2)n1 [pyrimethanil]
- pest or weed control at 25 ppm (Botrytis cinerea; Table 9, 25 ppm a.i.): 30%

Compound: Cn1cc(C(=O)Nc2ccccc2C2CC2C2CC2)c(C(F)F)n1 (centres unmarked) [sedaxane]
- Efficacy in % found (Phytophthora infestans; Table 1, 40 ppm a.i.): 37%

Compound: CC(C)(C)C(O)(CCc1ccc(Cl)cc1)Cn1cncn1 (centres unmarked) [tebuconazole]
- pest or weed control at 2 ppm (Sphaerotheca fuliginea; Podosphaera fuliginea, 168 h, Table 7, 2 ppm a.i., read-out: Efficacy in % found): 13%

Compound: CC(C)(C)C(O)C(Oc1ccc(Cl)cc1)n1cncn1 (centres unmarked) [triadimenol]
- pest or weed control at 1 ppm (Sphaerotheca fuliginea; [1]): 38%

Compound: CON=C(C(=O)OC)c1ccccc1CON=C(C)c1cccc(C(F)(F)F)c1 [trifloxystrobin]
- pest or weed control at 2.5 ppm (Sphaerotheca fuliginea; Podosphaera fuliginea, 168 h, Table 7, 2.5 ppm a.i., read-out: Efficacy in % found): 58%

Compound: CCC(C)(NC(=O)c1cc(Cl)c(C)c(Cl)c1)C(=O)CCl (centres unmarked) [zoxamide]
- pest or weed control at 0.4 ppm (Phytophthora infestans; [2]): 16%

Compound: mancozeb
- Efficacy in % found (Phytophthora infestans; Table 1, 20 ppm a.i.): 33%

Compound: metiram
- Efficacy in % found (Phytophthora infestans; Table 4, 100 ppm a.i.): 26%

Compound: propineb
- Efficacy in % found (Phytophthora infestans; Table 2, 6.25 ppm a.i.): 63%
